Data taken from ChEMBL document CHEMBL1143054, “Antimalarial linear lipopeptides from a Panamanian strain of the marine cyanobacterium Lyngbya majuscula” (J Nat Prod, 2007).
Non-standard residues stand in square brackets, D forms with d. Residues, ends and D or L forms follow the SMILES beside them. *: point of attachment. NMeY = CN[C@@H](Cc1ccc(O)cc1)C(=O)O; NMeF = CN[C@@H](Cc1ccccc1)C(=O)O; NMeV = CN[C@H](C(=O)O)C(C)C; X1 = C#CCCCCC(C)CC(C)C(=O)*; X2 = C#CCCCC[C@H](C)C(=O)*; NMeA = CN[C@@H](C)C(=O)O

How the values were obtained:
Plasmodium falciparum = assay: Antimalarial activity against chloroquine-resistant Plasmodium falciparum W2 by fluorimetry; assay type: functional, organism-based
Vero = assay: Cytotoxicity against Vero cells after 4 hrs; assay type: cell-based; conditions: Chlorocebus sabaeus

Compound `C#CCCCC[C@H](C)C(=O)N(C)[C@H](C(=O)N(C)[C@H](C(=O)N(C)[C@H](C(=O)N(C)[C@@H](Cc1ccccc1)C(N)=O)C(C)C)C(C)C)C(C)C` [DRAGONAMIDE A] (X2-[NMeV][NMeV][NMeV][NMeF]-NH2) has an IC50 (Plasmodium falciparum) of 10.7 µM and an IC50 (Vero) of 67.8 µM.
`C#CCCCC[C@H](C)C(=O)N(C)[C@@H](Cc1ccccc1)C(=O)N[C@@H](C)C(=O)N(C)[C@@H](C)C(=O)N(C)[C@@H](Cc1ccc(OC)cc1)C(N)=O` [DRAGOMABIN] (X2-[NMeF]A[NMeA][NMeY](Me)-NH2) showed an IC50 (Plasmodium falciparum) of 21 µM and an IC50 (Vero) of 182 µM.
Compound `C#CCCCCC(C)CC(C)C(=O)N(C)[C@@H](Cc1ccccc1)C(=O)N[C@@H](C)C(=O)N(C)[C@@H](C)C(=O)N(C)[C@@H](Cc1ccc(OC)cc1)C(N)=O` (stereo partly specified) [CARMABIN A] (X1-[NMeF]A[NMeA][NMeY](Me)-NH2) has an IC50 (Plasmodium falciparum) of 1.4 µM and an IC50 (Vero) of 9.8 µM.
